What was measured:
[1] = system: HT-22 cells; assay: HCA-induced toxicity in HT-22 neuroblastoma cells; type: cell-based, mouse
Description: FIGS. 6A and 6B show the effects of HSB-13 on HT-22 cells and the quantification of cell death. […] HT-22 cells were treated with no additives (Un), 1.5 mM HCA, or 1.5 mM HCA plus 25 μM HSB-13, 25 μM ASK-2a, and 25 μM HSB-22. In FIG. 6A, the appearance of the cultures at 24 h after treatment was visualized by phase-contrast microscopy (Phase). […] Viability was expressed as % of untreated cultures (control);
HT-22 cells were treated with no additives (Control), 2 mM HCA, or 2 mM HCA+25 μM HSB-13. The appearance of the cultures at 24 h after treatment is shown.
The mouse HT-22 neuroblastoma cell line was purchased from ATCC (Manassas, Va., USA) and cultured in Dulbecco's modified Eagle's medium (DMEM) with 4.5 g/L glucose (without sodium pyruvate) supplemented with 10% FBS, 100 units/ml penicillin and 100 μg/ml streptomycin. Cultures were plated at ˜30% confluence for HCA treatment. HCA was made as 150 mM stock solution adjusted to pH 7.5 and used at a final concentration of 1.5 mM.
Treatment of the mouse neuroblastoma HT-22 cell line with homocysteic acid (HCA) induces apoptosis through glutathione depletion and oxidative stress (Murphy et al. 1990; Ratan et al. 1994a, 1994b). The inventors studied whether HSB-13, HSB-22, and ASK-2a were protective in this paradigm of oxidative stress-induced neuronal death. HSB-13 prevents HCA-induced cell death. […] Thus, HSB-13, but not ASK-2a and HSB-22, is protective against oxidative stress-induced neuronal death.
Analysis in cultured cerebellar granule neurons identified HSB-13 as one with strong neuroprotective efficacy. We therefore selected HSB-13 to examine whether its protective effects extended to other neuronal types and apoptotic stimuli. Treatment of the hippocampally-derived neuroblastoma cell line, HT-22, with homocysteic acid (HCA) causes oxidative stress due to glutathione depletion leading to apoptosis (Murphy et al., 1990; Ratan et al., 1994a and 1994b).

[2] = system: phospho-MEK; assay: Western blot of signaling proteins in LK-treated cerebellar granule neurons: phospho-MEK; type: cell-based, rat; conditions: LK medium with compound, 3 h
Description: (§1) Cultures of cerebellar granule neurons were switched to HK medium, LK medium, or LK medium containing of HSB-13, HSB-22, or ASK-2a for 3 h. Total cell lysates were prepared and analyzed by Western blotting using antibodies against phospho-Akt (Ser473), phospho-MEK, phospho-ERK, and phospho-GSK3β.
(§2) The culture medium was removed and the cells were washed twice with ice-cold phosphate-buffered saline (PBS) and lysed in lysis buffer [1% Triton, 20 mM Tris-HCl (pH 7.5), 150 mM NaCl, 1 mM Na2EDTA, 1 mM EGTA, 2.5 mM sodium pyrophosphate, 1 mM beta-glycerophosphate, 1 mM Na3VO4, 1 μg/mL leupeptin and 1 protease inhibitor mixture]. Protein concentrations were measured and normalized using Bradford protein assay reagent (Bio-Rad, Hercules, Calif., USA). Following normalization, 40 μg of protein was subjected to Western blotting. Immunoreactivity was examined by enhanced chemiluminescence (Amersham Bioscience, Piscataway, N.J., USA).
(§3) Activation of MEK, ERK and Akt requires their phosphorylation, which can be detected using phospho-specific antibodies. As previously reported by the inventors and others (Chin et al., 2004; Johnson et al., 2005; Majdzadeh et al., 2008), MEK and ERK phosphorylation decreases following LK treatment of cerebellar granule neurons. This decrease is not prevented by HSB-13, HSB-22, or ASK-2a (FIG. 4). […] This is also not affected by treatment with ASK-2a or HSB-22 (FIG. 4).

[3] = system: phospho-ERK; assay: Western blot of signaling proteins in LK-treated cerebellar granule neurons: phospho-ERK; type: cell-based, rat; conditions: LK medium with compound, 3 h
Description: as §1, §2, §3

[4] = any of the three doses examined (data not shown)

Row | SMILES | protection against HCA-induced cell death [1, 4] | LK-induced decrease of MEK phosphorylation [2] | LK-induced decrease of ERK phosphorylation [3] | protection against HCA-induced cell death ([1]; 1.5 mM HCA, 5 μM compound, 24 h) | protection against HCA-induced cell death ([1]; 1.5 mM HCA, 25 μM compound, 24 h) | protection against HCA-induced cell death ([1]; 2 mM HCA, 5 uM compound) | HCA-induced cell death ([1]; 2 mM HCA, 25 uM compound, 24 h (FIG. 9))
1 | O=C1Nc2ccccc2OC1=Cc1cc(Br)c(O)c(Br)c1 [ASK-2a] | failed to protect | not prevented | not prevented | – | – | – | –
2 | Nc1ccc2c(c1)NC(=O)/C(=C/c1cc(Br)c(O)c(Br)c1)O2 [HSB-13, (Z)-6-amino-2-(3,′5′-dibromo-4′-hydrozybenzylidene)-2H-benzo[b][1,4]oxazin-3(4H)-one] | – | not prevented | not prevented | robust protection | highest protection | not protective | prevented
3 | O=C1Nc2cc(Cl)ccc2O/C1=C\c1cc(Br)c(O)c(Br)c1 [HSB-22] | failed to protect | not prevented | not prevented | – | – | – | –

— patent US8680094B2, “1, 4-benzoxazine compounds and derivatives thereof as therapeutic drugs for the treatment of neurodegenerative conditions” (Board of Regents, The University of Texas System, priority 2008, dated 2014)
